Values belong to the compound of their own block, whether it stands above or below them. Starred links: 1 amine or outer side, 2 acyl side, 3 side chain; linkers in the order of their positions; H or OH if unused. Non-standard residues stand in square brackets, D forms with d. Residues, ends and D or L forms follow the SMILES beside them. Groups on a side chain read outwards from the residue. *: point of attachment. C20 diacid = O=C(O)CCCCCCCCCCCCCCCCCCC(=O)*; X2 = CC(C)(CC(N)=O)[C@H](N[*:1])C(=O)[*:2]; C18 diacid = O=C(O)CCCCCCCCCCCCCCCCC(=O)*; γGlu = O=C(O)[C@H](CCC(=O)[*:2])N[*:1]; X3 = O=C(CN(Cc1c[nH]cn1)[*:1])[*:2]; αMeF = C[C@](N)(Cc1ccccc1)C(=O)O; AEEA = NCCOCCOCC(=O)O; Aib = CC(C)(N)C(=O)O
Biological target: human GLP-1 receptor (hGLP-1R) (Homo sapiens, UniProt P43220)
Sequence (P43220 24-463): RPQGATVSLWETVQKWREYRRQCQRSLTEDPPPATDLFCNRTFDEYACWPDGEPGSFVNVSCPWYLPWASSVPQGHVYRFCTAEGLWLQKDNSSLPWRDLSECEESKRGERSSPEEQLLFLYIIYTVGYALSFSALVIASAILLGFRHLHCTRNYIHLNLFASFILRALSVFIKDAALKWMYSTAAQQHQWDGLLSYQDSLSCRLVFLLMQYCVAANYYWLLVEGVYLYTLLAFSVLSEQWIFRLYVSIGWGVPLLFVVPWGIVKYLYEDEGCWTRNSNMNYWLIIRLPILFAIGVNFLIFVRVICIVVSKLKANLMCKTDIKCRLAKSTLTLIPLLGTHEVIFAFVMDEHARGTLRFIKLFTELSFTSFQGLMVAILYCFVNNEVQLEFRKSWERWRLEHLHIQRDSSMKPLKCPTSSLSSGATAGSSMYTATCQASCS
Assay: cAMP production (HTRF) in CHO cells expressing hGLP-1R
Assay type: cell-based
Set-up: expressed in transfected cells
Details: for % Relative Potency Ratio: % GLP-1R activity relative to GLP-1 / % GlucR activity relative to glucagon
Protocol: Cells were re-suspended in assay buffer at a batch-dependent optimized concentration (typically hGLP-1R cells at 1×10^5 cells/mL, hGCGR cells at 2×10^5 cells/mL).
Cells were added to the assay plate using a multidrop dispenser and incubated at room temperature for 30 minutes before measuring the cAMP level using a cAMP dynamic 2 homogeneous time resolved Fluorescence (HTRF) kit (Cisbio Bioassays #62AM4PEJ) following the two-step protocol as per manufacturer's recommendations. In brief, anti-cAMP cryptate (donor fluorophore) and cAMP-d2 (acceptor fluorophore) were made up separately by diluting each 1 in 20 in conjugate and lysis buffer provided in the kit. Anti-CAMP cryptate was added to all wells of the assay plate, followed by cAMP-d2 added to all wells except non-specific binding (NSB) wells (to which conjugate and lysis buffer was added).
Data was transformed to % Delta F as described in the manufacturer's guidelines and analyzed by 4-parameter logistic fit to determine EC50 values.

% Relative Potency Ratio (Table 7): 0.4
SMILES: CC[C@H](C)[C@H](NC(=O)[C@H](Cc1c[nH]c2ccccc12)NC(=O)[C@H](C)NC(=O)[C@@H](NC(=O)[C@](C)(Cc1ccccc1)NC(=O)[C@H](CC(=O)O)NC(=O)[C@H](CCCCNC(=O)COCCOCCNC(=O)COCCOCCNC(=O)CC[C@H](NC(=O)CCCCCCCCCCCCCCCCC(=O)O)C(=O)O)NC(=O)[C@H](C)NC(=O)[C@H](C)NC(=O)[C@H](CCCNC(=N)N)NC(=O)[C@H](CO)NC(=O)[C@H](CC(=O)O)NC(=O)[C@H](CC(C)C)NC(=O)[C@](C)(Cc1ccccc1)NC(=O)[C@H](CCCCN)NC(=O)[C@H](CO)NC(=O)[C@@H](NC(=O)[C@H](CC(=O)O)NC(=O)[C@H](CO)NC(=O)[C@@H](NC(=O)[C@](C)(Cc1ccccc1)NC(=O)[C@H](CO)NC(=O)CNC(=O)[C@H](Cc1c[nH]cn1)NC(=O)C(C)(C)NC(=O)[C@@H](N)Cc1c[nH]cn1)[C@@H](C)O)C(C)C)[C@@H](C)CC)C(=O)N[C@@H](C)C(=O)N[C@@H](CC(N)=O)C(=O)N[C@H](C(N)=O)[C@@H](C)O [Peptide 230] (H-H[Aib]HGS[αMeF]TSDVSK[αMeF]LDSRAAK([AEEA-AEEA-γGlu-C18 diacid])D[αMeF]IAWIANT-NH2)

% Relative Potency Ratio (Table 7): 2.9
SMILES: CC[C@H](C)[C@H](NC(=O)C(C)(C)NC(=O)[C@H](CCC(N)=O)NC(=O)[C@@H](NC(=O)[C@](C)(Cc1ccccc1)NC(=O)[C@H](CC(=O)O)NC(=O)[C@H](CCCCNC(=O)COCCOCCNC(=O)COCCOCCNC(=O)CC[C@H](NC(=O)CCCCCCCCCCCCCCCCC(=O)O)C(=O)O)NC(=O)[C@H](C)NC(=O)[C@H](C)NC(=O)[C@H](CCCNC(=N)N)NC(=O)[C@H](CO)NC(=O)[C@H](CC(=O)O)NC(=O)[C@H](CC(C)C)NC(=O)[C@](C)(Cc1ccccc1)NC(=O)[C@H](CCCCN)NC(=O)[C@H](CO)NC(=O)[C@@H](NC(=O)[C@H](CC(=O)O)NC(=O)[C@H](CO)NC(=O)[C@@H](NC(=O)[C@](C)(Cc1ccccc1)NC(=O)[C@H](CO)NC(=O)CNC(=O)[C@@H](NC(=O)[C@H](CO)NC(=O)[C@@H](N)Cc1c[nH]cn1)C(C)(C)CC(N)=O)[C@@H](C)O)C(C)C)C(C)C)C(=O)N[C@@H](C)C(=O)N[C@@H](CC(N)=O)C(=O)N[C@H](C(N)=O)[C@@H](C)O [Peptide 324] (H-HS[X2]GS[αMeF]TSDVSK[αMeF]LDSRAAK([AEEA-AEEA-γGlu-C18 diacid])D[αMeF]VQ[Aib]IANT-NH2; N-terminus assumed)

SMILES: CC[C@H](C)[C@H](NC(=O)[C@H](Cc1c[nH]c2ccccc12)NC(=O)[C@H](CCCCNC(=O)CC[C@H](NC(=O)CC[C@H](NC(=O)CCOCCOCCNC(=O)CC[C@H](NC(=O)CC[C@H](NC(=O)CCCCCCCCCCCCCCCCCCC(=O)O)C(=O)O)C(=O)O)C(=O)O)C(=O)O)NC(=O)[C@@H](NC(=O)[C@H](Cc1ccccc1)NC(=O)[C@H](CC(=O)O)NC(=O)[C@H](CCC(N)=O)NC(=O)[C@H](C)NC(=O)[C@H](C)NC(=O)[C@H](CCC(N)=O)NC(=O)[C@H](CO)NC(=O)[C@H](CC(=O)O)NC(=O)[C@H](CC(C)C)NC(=O)[C@](C)(Cc1ccccc1)NC(=O)[C@H](CCCCN)NC(=O)[C@H](CO)NC(=O)[C@@H](NC(=O)[C@H](CC(=O)O)NC(=O)[C@H](CO)NC(=O)[C@@H](NC(=O)[C@](C)(Cc1ccccc1)NC(=O)[C@H](CO)NC(=O)CNC(=O)[C@H](Cc1c[nH]cn1)NC(=O)C(C)(C)NC(=O)[C@@H](N)Cc1c[nH]cn1)[C@@H](C)O)C(C)C)C(C)C)C(=O)N[C@@H](C)C(=O)N[C@@H](CC(N)=O)C(=O)N[C@H](C(N)=O)[C@@H](C)O [Peptide 357]
% Relative Potency Ratio: 1.2

% Relative Potency Ratio: 33.9
SMILES: CC[C@H](C)[C@H](NC(=O)[C@H](Cc1c[nH]c2ccccc12)NC(=O)[C@H](CCCCNC(=O)COCCOCCNC(=O)COCCOCCNC(=O)CC[C@H](NC(=O)CC[C@H](NC(=O)CCCCCCCCCCCCCCCCCCC(=O)O)C(=O)O)C(=O)O)NC(=O)[C@@H](NC(=O)[C@H](Cc1ccccc1)NC(=O)[C@H](CC(=O)O)NC(=O)[C@H](CCC(N)=O)NC(=O)[C@H](C)NC(=O)[C@H](C)NC(=O)[C@H](CCCNC(=N)N)NC(=O)[C@H](CO)NC(=O)[C@H](CC(=O)O)NC(=O)[C@H](CC(C)C)NC(=O)[C@](C)(Cc1ccccc1)NC(=O)[C@H](CCCCN)NC(=O)[C@H](CO)NC(=O)[C@@H](NC(=O)[C@H](CC(=O)O)NC(=O)[C@H](CO)NC(=O)[C@@H](NC(=O)[C@](C)(Cc1ccccc1)NC(=O)[C@H](CO)NC(=O)CNC(=O)[C@H](Cc1c[nH]cn1)NC(=O)[C@H](CO)NC(=O)CNCc1c[nH]cn1)[C@@H](C)O)C(C)C)C(C)C)C(=O)N[C@@H](C)C(=O)N[C@@H](CC(N)=O)C(=O)N[C@H](C(N)=O)[C@@H](C)O [Peptide 380] (H-[X3]SHGS[αMeF]TSDVSK[αMeF]LDSRAAQDFVK([AEEA-AEEA-γGlu-γGlu-C20 diacid])WIANT-NH2)

% Relative Potency Ratio: 9.3
SMILES: CCCCCCCCCCCCCCCCCC(=O)N[C@@H](CCC(=O)N[C@@H](CCC(=O)NCCOCCOCCC(=O)NCCOCCOCCC(=O)NCCCC[C@H](NC(=O)[C@H](CC(=O)O)NC(=O)[C@H](CO)NC(=O)[C@@H](NC(=O)[C@](C)(Cc1ccccc1)NC(=O)[C@H](CO)NC(=O)CNC(=O)[C@H](CCC(N)=O)NC(=O)[C@H](CO)NC(=O)[C@@H](N)Cc1c[nH]cn1)[C@@H](C)O)C(=O)N[C@@H](CO)C(=O)N[C@@H](CCCCN)C(=O)N[C@H](C(=O)N[C@@H](CC(C)C)C(=O)N[C@@H](CC(=O)O)C(=O)N[C@@H](CO)C(=O)N[C@H](C(=O)N[C@@H](C)C(=O)N[C@@H](C)C(=O)N[C@@H](CCC(N)=O)C(=O)N[C@@H](CC(=O)O)C(=O)N[C@@](C)(Cc1ccccc1)C(=O)N[C@H](C(=O)N[C@@H](CCC(=O)O)C(=O)NC(C)(C)C(=O)N[C@@H](CC(C)C)C(=O)N[C@@H](C)C(=O)N[C@@H](CC(N)=O)C(=O)N[C@H](C(N)=O)[C@@H](C)O)C(C)C)C(C)(C)CCNC(=N)N)C(c1ccccc1)c1ccccc1)C(=O)O)C(=O)O [Peptide 393, HSQGS(αMePhe)TSDK((PEG)2-(PEG)2-γE-yE-Stearoyl)10SK(Dip)LDS(β-dimethylArg)AAQD(αMePhe)VE(Aib)LANT-amide]

% Relative Potency Ratio (Table 6): 4.4
SMILES: CC(C)C[C@H](NC(=O)[C@H](Cc1c[nH]c2ccccc12)NC(=O)[C@H](CCCNC(=N)N)NC(=O)[C@@H](NC(=O)[C@H](Cc1ccccc1)NC(=O)[C@H](CC(=O)O)NC(=O)[C@H](CCC(N)=O)NC(=O)[C@H](C)NC(=O)[C@H](CCCNC(=N)N)NC(=O)[C@H](CCCCNC(=O)COCCOCCNC(=O)COCCOCCNC(=O)CC[C@H](NC(=O)CCCCCCCCCCCCCCCCCCC(=O)O)C(=O)O)NC(=O)[C@@H](NC(=O)[C@H](CC(=O)O)NC(=O)[C@H](CC(C)C)NC(=O)[C@](C)(Cc1ccccc1)NC(=O)[C@H](CCCCN)NC(=O)[C@H](CO)NC(=O)[C@@H](NC(=O)[C@H](CC(=O)O)NC(=O)[C@H](CO)NC(=O)[C@@H](NC(=O)[C@H](Cc1ccccc1)NC(=O)[C@@H](NC(=O)CNC(=O)[C@H](CCC(N)=O)NC(=O)C(C)(C)NC(=O)[C@@H](N)Cc1c[nH]cn1)[C@@H](C)O)[C@@H](C)O)C(C)C)[C@@H](C)O)C(C)C)C(=O)N[C@@H](CCC(=O)O)C(=O)N[C@@H](C)C(=O)NC(C)(C)C(=O)NCC(=O)O [Peptide 407]

SMILES: CC(C)C[C@H](NC(=O)[C@H](Cc1c[nH]c2ccccc12)NC(=O)[C@H](CCC(N)=O)NC(=O)[C@@H](NC(=O)[C@H](Cc1ccccc1)NC(=O)[C@H](CC(=O)O)NC(=O)[C@H](CCCNC(=N)N)NC(=O)[C@H](C)NC(=O)[C@H](CCCNC(=N)N)NC(=O)[C@H](CCCCNC(=O)COCCOCCNC(=O)COCCOCCNC(=O)CC[C@H](NC(=O)CCCCCCCCCCCCCCCCCCC(=O)O)C(=O)O)NC(=O)[C@@H](NC(=O)[C@H](CCC(=O)O)NC(=O)[C@H](CC(C)C)NC(=O)[C@](C)(Cc1ccccc1)NC(=O)[C@H](CCCCN)NC(=O)[C@H](CO)NC(=O)[C@@H](NC(=O)[C@H](CC(=O)O)NC(=O)[C@H](CO)NC(=O)[C@@H](NC(=O)[C@H](Cc1ccccc1)NC(=O)[C@@H](NC(=O)CNC(=O)[C@H](CCC(N)=O)NC(=O)C(C)(C)NC(=O)[C@@H](N)Cc1c[nH]cn1)[C@@H](C)O)[C@@H](C)O)C(C)C)[C@@H](C)O)C(C)C)C(=O)N[C@@H](CC(C)C)C(=O)N[C@@H](CCC(=O)O)C(=O)NC(C)(C)C(=O)NCC(=O)O [Peptide 444]
% Relative Potency Ratio (Table 6): 14.1

EC50 (Table 6, peptides modified at position 17, cAMP in CHO hGLP-1R cells, geometric mean, read-out: hGLP-1R EC50): 0.167 nM
SMILES: CC(C)C[C@H](NC(=O)[C@H](CC(C)C)NC(=O)[C@H](Cc1c[nH]c2ccccc12)NC(=O)[C@H](CCCNC(=N)N)NC(=O)[C@@H](NC(=O)[C@H](Cc1ccccc1)NC(=O)[C@H](CC(=O)O)NC(=O)[C@H](CCC(N)=O)NC(=O)[C@H](C)NC(=O)[C@H](CCCNC(=N)N)NC(=O)[C@H](CCCCNC(=O)COCCOCCNC(=O)COCCOCCNC(=O)CC[C@H](NC(=O)CCCCCCCCCCCCCCCCC(=O)O)C(=O)O)NC(=O)[C@H](CCCNC(=N)N)NC(=O)[C@H](CC(=O)O)NC(=O)[C@H](CC(C)C)NC(=O)[C@](C)(Cc1ccccc1)NC(=O)[C@H](CCCCN)NC(=O)[C@H](CO)NC(=O)[C@@H](NC(=O)[C@H](CC(=O)O)NC(=O)[C@H](CO)NC(=O)[C@@H](NC(=O)[C@H](Cc1ccccc1)NC(=O)[C@@H](NC(=O)CNC(=O)[C@H](CCC(N)=O)NC(=O)C(C)(C)NC(=O)[C@@H](N)Cc1c[nH]cn1)[C@@H](C)O)[C@@H](C)O)C(C)C)C(C)C)C(=O)N[C@@H](C)C(=O)N[C@@H](CCC(=O)O)C(N)=O [Peptide 461] (H-H[Aib]QGTFTSDVSK[αMeF]LDRK([AEEA-AEEA-γGlu-C18 diacid])RAQDFVRWLLAE-NH2; N-terminus assumed)

— US20250353891A1 (MEDIMMUNE LIMITED, priority 2022, published 2025)
